assay: gradient 5% acetonitrile 3 min, to 50% in 2 min, to 85% in 15 min, held 3 min, 100 µL/min; details: column: Zorbax Extend-C18 2.1 x 50 mm; eluents: water / acetonitrile, 0.1% formic acid
In short: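 Standards, all pure, were combined into mixtures of ~100 molecules and run at 100 μL/min on a Zorbax Extend-C18 column (2.1 × 50 mm, 1.8 μm) with water and acetonitrile, each containing 0.1% formic acid. A coupled quadrupole time-of-flight mass spectrometer operated in positive and negative ionization mode. Retention time values come from computationally picked adduct peaks, each inspected manually.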

RP-LC retention time [s]	Compound
655	O=C(CSc1ccc2nnc(-c3cccs3)n2n1)NCc1ccc(F)cc1
793	O=C(NCC1CCCO1)c1ccc(-c2cnc(Oc3ccc(F)cc3)nc2)cc1 (stereo not drawn)
736	COc1cccc(CNC(=O)N2CCC(CC(=O)NCc3ccccc3)CC2)c1
780	O=C(Cc1nnc2cc(-c3nc(C4CC4)no3)ccn12)N1CCc2ccccc2C1
736	COc1ccccc1-c1nc(Cn2cccc(S(=O)(=O)N3CCCC3)c2=O)no1
885	O=C(Cc1ccc(F)cc1)NCc1ccc(-c2nc(C3CC3)no2)s1
1020	COc1cccc(-c2nc(-c3ccc4oc(C)nc4c3)no2)c1OC
714	Cc1cnn(CC(=O)N2CC(n3cc(COc4ccc(F)cc4)nn3)C2)c1
696	COCCNC(=O)CN1C(=O)C2CCCCN2c2ccc(C(=O)N3CCCCC3)cc21 (stereo not drawn)
1210	CCOC(=O)C1CCN(S(=O)(=O)c2cccc(-c3nc(-c4ccccc4)no3)c2)CC1
671	O=C(Cn1nc2c(c1NC(=O)c1c(F)cccc1Cl)CSC2)NCC1CCCO1 (stereo not drawn)
890	CCOc1ccc(NS(=O)(=O)c2cc(C(=O)Nc3ccc(C)cc3)n[nH]2)cc1
621	Cc1ccc(C)c(NC(=O)N2CCN(CCn3c(C(C)C)nc4cccnc43)CC2)c1
610	CCN(CC)CCNc1ccc2nc(C)n3c4ccc(OC)cc4c(=O)c1c23
755	COc1cccc(-c2nc3cnccn3c2NCCC(=O)NC2CCCCCC2)c1
1010	COc1ccc(NC(=O)CSc2cc(N3CCN(c4ccccc4F)CC3)ncn2)cc1
750	COc1ccc(CC(C)(O)CNC(=O)Nc2ccccc2OC)cc1 (stereo not drawn)
1090	CCOc1ccc(OCC)c(NC(=O)CN2C(=O)C(C)(C)c3ccccc32)c1
693	CC(C)Cn1c(=O)c(-c2ccc(C(=O)NCc3cccnc3)cc2)nc2ccccc21
1020	Cc1ccccc1-c1noc(C2CCCN2C(=O)NC2CCCCC2)n1 (stereo not drawn)

RP-LC retention time [s]	Compound
849	COc1ccc(OC)c(CNC(=O)c2c(N3CCCC3=O)c3cc(OC)ccc3n2C)c1
1400	CC(C)(C)c1ccc(-c2cc(C(=O)O)c3ccc(Br)cc3n2)cc1
671	O=C(Cn1nc2n(c1=O)CCCCC2)NCc1ccc(F)cc1
1120	CN(Cc1ccccc1)C(=O)Cn1c(=O)c2cnc(-c3ccc(Cl)cc3)nc2n(C)c1=O
856	COc1ccc(NC(=O)c2cnc3c(c2)c(=O)n(C)c(=O)n3-c2ccc(F)cc2)cc1
1130	Cc1nc2cc(-c3noc(Cc4cccc5ccccc45)n3)ccc2o1
1090	Cc1cc(C)n(-c2nc(C)c(C(=O)N3CCc4ccccc4C3)s2)n1
853	Cc1ccc(CNC(=O)c2cc3n(n2)CCCN(Cc2cccc(F)c2)C3=O)o1
1060	Cc1ccc(S(=O)(=O)N2CCC(n3cnc4c(C)cccc4c3=O)CC2)c(C)c1
869	Cc1nc(N2CCOCC2)c2c(C(=O)Nc3cc(Cl)ccc3C)c(C)oc2n1
1050	CCn1c(=O)n(-c2ccc(F)cc2)c2nc(-c3ccc(F)c(F)c3)nc(C(N)=O)c21
1000	CCc1nc2cc(-c3noc(-c4n[nH]c5c4CCCC5)n3)ccc2o1
879	CCN1C(=O)COc2ccc(-c3noc(C4CC(=O)N(c5ccccc5)C4)n3)cc21 (stereo not drawn)
807	COc1cccc(NC(=O)Cn2c(=O)c3cc(-c4ccco4)nn3c3ncccc32)c1
872	CCC1Oc2ccc(S(=O)(=O)N3CCC(C(=O)NCc4ccccc4C)CC3)cc2NC1=O (stereo not drawn)
675	COc1ccc(-c2cc(C(=O)NCC(c3cccs3)N(C)C)no2)cc1 (stereo not drawn)
678	Cc1ccc2oc(CN3CCN(C(=O)Nc4ccccc4)CC3)nc2c1
703	Cc1nnc2c(=O)n(CC(=O)NCc3ccc(Cl)cc3)c3cccnc3n12
728	COc1ccc(-c2cc3nn(CC(=O)NCC4CCCO4)c(=O)n3c(C)n2)cc1 (stereo not drawn)

Second part, the compound before the results:

Compound	RP-LC retention time [s]
Cc1[nH]nc2ccc(-c3cncc(OC[C@@H](N)Cc4ccccc4)c3)cc12	624
O=C(Cc1ccccc1Cl)N1CCc2nc(-c3ccc(Cl)cc3)ncc2C1	1140
O=C(c1ccco1)N1CCN(c2ncnc3sc(-c4ccccc4)cc23)CC1	840
O=C(NCCc1c[nH]c2ccc(Cl)cc12)c1cc2n(n1)CCCN(Cc1ccc(Cl)cc1)C2=O	998
COc1cc2c(cc1OC)C(C(=O)NCCCN1CCC(C)CC1)C1c3ccccc3CCN1C2=O (stereo not drawn)	624
CCOCCCNC(=O)c1ccc2nc(CCc3ccc(NC(C)=O)cc3)[nH]c2c1	589
O=C(Nc1cc(F)cc(F)c1)c1c(O)c2cccnc2n(-c2ccccc2)c1=O	709
Cc1ccc(S(=O)(=O)N(C)CC2CCOCC2)cc1Cl	894
Cc1cc(C)cc(NS(=O)(=O)c2c[nH]c3ncccc23)c1	758
Cc1nc(N2CCN(c3ccccn3)CC2)nc2c1C(=O)CC(C)C2 (stereo not drawn)	652
Cc1ccc(S(=O)(=O)N2C[C@@H]3C[C@H]2C[C@@H]3NC(=O)c2cccs2)cc1Cl	992
O=C(NCC1CCN(C(=O)Oc2ccccc2)CC1)Nc1ccccc1Cl	881
Cc1ccn2c(NC(=O)c3ccco3)c(-c3ccccc3)nc2c1	622
CCCC(NC(=O)c1ccc(Cl)cc1)C(=O)Nc1nc2ccccc2[nH]1 (stereo not drawn)	742
O=C(CCC1CCCC1)NCCC1CCN(C(=O)Nc2cc(F)ccc2F)CC1	924
OCCN1CCN(c2ncnc3c2cnn3-c2ccccc2Cl)CC1	592
Cc1noc([C@@H]2CC(F)(F)CN2C(=O)c2occc2C)n1	756
O=C(CCc1ccccc1)N1CCC(c2noc(-c3cnccn3)n2)C1 (stereo not drawn)	735
O=S(=O)(Cc1ccccc1Cl)N1CCc2nc(-c3ccc(Cl)cc3)ncc2C1	1220
Cc1cnc(-c2ccncc2)n1CC1CN(S(=O)(=O)c2ccc3c(c2)CCC3)C1	651
CS(=O)(=O)c1nc2ccc(NS(=O)(=O)c3ccc(Br)s3)cc2s1	888
COCCc1noc(-c2cnc3nc(C)ccc3c2NCc2cccc(Cl)c2)n1	711
Cc1cc(Br)ccc1NC(=O)C1CCCN(c2ncnc3c2nc2n3CCCCC2)C1 (stereo not drawn)	895
O=C(NCCc1c[nH]c2ccccc12)c1cc(=O)[nH]c2ccccc12	682
Cc1nc(CCNC(=O)C2CCN(S(=O)(=O)c3ccc(CC(C)C)cc3)CC2)cs1	917

Compound	RP-LC retention time [s]
N#Cc1cccc(NC(=O)Cn2c(=O)cc(C(=O)N3CCCC3)c3ccccc32)c1	690
CCn1nc(C)c(CCN(C)C(=O)Nc2ccccc2C(=O)OC)c1C	744
O=C(CCSc1ccc(F)cc1)Nc1ccccc1-c1nc2ccccc2[nH]1	939
c1ccc(-c2nc(N3CCCCCC3)c3ccccc3n2)cc1	768
COC(=O)C1=CN(c2ccc(OC)c(OC)c2)c2ccccc2S1(=O)=O	763
Cc1cc(N2CCOCC2)nc(N2CCN(S(=O)(=O)c3ccc(Br)cc3)CC2)n1	718
Cn1nnc2c(SCc3c(F)cccc3Cl)ncnc21	933
Cc1cc(NS(=O)(=O)c2ccc3c(c2)C(=O)N(C)c2ncccc2O3)ccc1F	951
O=C(NCc1cccnc1)C1c2ccccc2C(=O)N(C2CCCC2)C12CCCCC2 (stereo not drawn)	677
Cc1nc2ccn(Cc3ccco3)c(=O)c2cc1C(=O)NCc1ccco1	718
Cc1nn(-c2ccccc2)c(C)c1S(=O)(=O)N1CCN(c2ccccn2)CC1	664
CCCN(CC1CCOC1)S(=O)(=O)c1ccccc1CC (stereo not drawn)	992
CCN1C(=O)C(C)(C(=O)Nc2ccccc2C)Oc2cccnc21 (stereo not drawn)	876
Cc1cc(C)cc(-n2c(-c3ccc(Cl)cc3)cn3c4c(=O)n(C)c(=O)n(C)c4nc23)c1	1130
CC(C)(C)C(=O)Nc1ccc(NC(=O)C(C)(C)C)cc1	838
O=C(CSc1ccc(N2CCCC(C(=O)NC3CC3)C2)nn1)Nc1ccccc1Cl (stereo not drawn)	673
Cc1nn(-c2ccccc2)cc1C(=O)N1CCC(CC(=O)NC2CC2)CC1	667
O=C(Nc1ccc(F)cc1)c1c(O)c2cccnc2n(-c2cccc(F)c2)c1=O	1220
CCCn1cnc2cc(CNC(=O)c3cc4ccccc4[nH]3)ccc21	659
O=C(CSc1ccncc1)N1CC2CN(S(=O)(=O)c3cccc(F)c3)CC(C1)O2	600
O=C(c1ccco1)N1CCCC(c2ccnc(-c3ccccc3)n2)C1 (stereo not drawn)	962
CCCN1CCN(C(=O)C2CCCN(S(=O)(=O)c3cc(-c4noc(C)n4)cs3)C2)CC1 (stereo not drawn)	638
O=C(NC1CCCCCC1)C1CCCN(C(=O)c2ccc(Cl)cc2)C1 (stereo not drawn)	904
CCOC(=O)c1[nH]c(C)c(C(=O)N2CCC(CC(=O)NC(C)C)CC2)c1C	643

From the METLIN SMRT retention time set (Domingo-Almenara et al. 2019)
